In ChEMBL document CHEMBL1159294, “Bioactive Prenylhydroquinone Sulfates and a Novel C 31 Furanoterpene Alcohol Sulfate from the Marine Sponge, Ircinia Sp” (J Nat Prod, 1995):
pIC50: −log10 of the molar value. The source made the active and inactive calls. No cut-off for these calls is given here.

Legend:
[1] = biological target: Receptor tyrosine-protein kinase erbB-2 (Homo sapiens, UniProt P04626); assay: Inhibition of HER2 overexpressed in mouse 3T3 cells by ELISA; type: cell-based, NIH3T3; settings: for Activity: NIH3T3
Receptor tyrosine-protein kinase erbB-2, sequence (P04626 whole entry): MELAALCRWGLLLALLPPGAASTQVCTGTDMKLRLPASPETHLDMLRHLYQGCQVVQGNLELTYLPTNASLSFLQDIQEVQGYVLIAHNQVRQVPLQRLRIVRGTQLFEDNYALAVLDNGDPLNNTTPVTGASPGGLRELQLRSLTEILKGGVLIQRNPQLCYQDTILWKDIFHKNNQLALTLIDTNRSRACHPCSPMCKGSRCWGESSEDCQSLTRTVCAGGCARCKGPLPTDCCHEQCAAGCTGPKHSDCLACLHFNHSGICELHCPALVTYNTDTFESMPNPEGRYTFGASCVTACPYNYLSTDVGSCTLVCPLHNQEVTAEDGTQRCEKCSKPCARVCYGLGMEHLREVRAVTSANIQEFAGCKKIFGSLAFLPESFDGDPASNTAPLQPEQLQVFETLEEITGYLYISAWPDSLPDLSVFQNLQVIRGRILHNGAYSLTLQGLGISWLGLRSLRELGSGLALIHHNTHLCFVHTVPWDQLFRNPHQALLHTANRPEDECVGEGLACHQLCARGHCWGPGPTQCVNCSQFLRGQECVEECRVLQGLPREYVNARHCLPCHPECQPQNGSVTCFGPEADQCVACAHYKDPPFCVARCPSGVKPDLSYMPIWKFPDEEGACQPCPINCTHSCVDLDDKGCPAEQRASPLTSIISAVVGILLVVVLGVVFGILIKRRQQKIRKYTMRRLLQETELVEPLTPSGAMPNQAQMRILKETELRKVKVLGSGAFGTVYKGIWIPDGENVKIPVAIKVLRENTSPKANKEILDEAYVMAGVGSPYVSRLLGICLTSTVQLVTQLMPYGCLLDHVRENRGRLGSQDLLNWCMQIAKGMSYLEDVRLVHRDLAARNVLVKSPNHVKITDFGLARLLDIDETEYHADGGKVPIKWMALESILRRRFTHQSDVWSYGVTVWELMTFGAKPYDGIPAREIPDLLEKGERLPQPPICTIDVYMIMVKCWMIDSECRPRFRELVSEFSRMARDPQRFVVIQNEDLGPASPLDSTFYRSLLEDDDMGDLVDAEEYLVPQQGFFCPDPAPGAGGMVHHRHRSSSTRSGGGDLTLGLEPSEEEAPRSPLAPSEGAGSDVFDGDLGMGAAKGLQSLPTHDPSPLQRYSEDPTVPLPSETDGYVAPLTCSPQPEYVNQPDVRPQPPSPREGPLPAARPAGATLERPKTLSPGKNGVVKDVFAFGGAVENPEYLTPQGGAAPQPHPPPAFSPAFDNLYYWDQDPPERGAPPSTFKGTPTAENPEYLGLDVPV

[2] = biological target: Human immunodeficiency virus type 1 integrase (Human immunodeficiency virus 1) (UniProt Q7ZJM1); assay: Inhibition of HIV1 integrase at 5 ug/ml by scintillation proximity assay
Human immunodeficiency virus type 1 integrase (Human immunodeficiency virus 1), sequence (Q7ZJM1 as listed by the source): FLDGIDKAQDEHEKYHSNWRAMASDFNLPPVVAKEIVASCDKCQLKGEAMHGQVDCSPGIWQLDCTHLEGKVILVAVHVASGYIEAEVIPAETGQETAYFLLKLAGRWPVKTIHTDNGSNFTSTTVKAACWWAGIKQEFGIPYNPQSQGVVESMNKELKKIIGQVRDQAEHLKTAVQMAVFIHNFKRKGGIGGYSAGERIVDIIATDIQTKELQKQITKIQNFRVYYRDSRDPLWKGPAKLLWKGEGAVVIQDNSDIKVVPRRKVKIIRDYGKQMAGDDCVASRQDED

[3] = biological target: Human immunodeficiency virus type 1 integrase (Human immunodeficiency virus 1) (UniProt Q7ZJM1); assay: Inhibition of HIV1 integrase at 1 ug/ml by scintillation proximity assay
[4] = biological target: T1, Neuropeptide Y receptor type 1 (Rattus norvegicus) (UniProt P21555); assay: (§1) Displacement of [3H]NPY from neuropeptide Y receptor in rat cerebral cortices
T1 sequence (whole entry): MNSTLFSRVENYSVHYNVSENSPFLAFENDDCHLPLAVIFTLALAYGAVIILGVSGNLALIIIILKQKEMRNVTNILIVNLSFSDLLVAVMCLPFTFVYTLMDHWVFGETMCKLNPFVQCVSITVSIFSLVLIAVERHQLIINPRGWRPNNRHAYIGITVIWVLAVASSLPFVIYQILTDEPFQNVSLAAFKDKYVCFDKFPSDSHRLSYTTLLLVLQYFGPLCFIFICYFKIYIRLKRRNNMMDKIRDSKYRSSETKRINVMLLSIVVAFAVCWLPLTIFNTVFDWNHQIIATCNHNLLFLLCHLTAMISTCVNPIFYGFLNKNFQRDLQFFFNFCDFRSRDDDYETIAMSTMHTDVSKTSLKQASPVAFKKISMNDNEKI

[5] = biological target: T2, VIP peptides (Homo sapiens) (UniProt P01282); assay: Binding affinity to vasoactive intestinal peptide
T2 sequence (whole entry): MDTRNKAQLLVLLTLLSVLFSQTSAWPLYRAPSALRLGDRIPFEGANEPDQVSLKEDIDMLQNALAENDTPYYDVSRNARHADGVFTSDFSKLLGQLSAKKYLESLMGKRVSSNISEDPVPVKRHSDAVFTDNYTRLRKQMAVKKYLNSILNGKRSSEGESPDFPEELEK

[6] = biological target: T3, Neuromedin-K receptor (Homo sapiens) (UniProt P29371); assay: Binding affinity to NK3 receptor
T3 sequence (whole entry): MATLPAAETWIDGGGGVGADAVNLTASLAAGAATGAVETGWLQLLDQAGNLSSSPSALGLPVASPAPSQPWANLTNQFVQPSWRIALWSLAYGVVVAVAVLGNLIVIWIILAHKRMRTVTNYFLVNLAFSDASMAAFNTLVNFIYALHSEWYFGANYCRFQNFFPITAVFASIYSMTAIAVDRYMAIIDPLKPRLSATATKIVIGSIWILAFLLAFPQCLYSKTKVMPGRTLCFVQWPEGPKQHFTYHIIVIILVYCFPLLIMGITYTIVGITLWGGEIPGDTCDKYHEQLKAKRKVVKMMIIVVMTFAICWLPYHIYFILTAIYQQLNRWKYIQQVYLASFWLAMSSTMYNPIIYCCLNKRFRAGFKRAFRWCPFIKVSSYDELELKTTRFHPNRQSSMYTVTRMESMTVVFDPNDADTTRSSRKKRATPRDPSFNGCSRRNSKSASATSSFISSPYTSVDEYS

Rattus norvegicus = organism: Rattus norvegicus; assay: Displacement of radioiodinated somatostatins from rat somatostatin receptor
[7] = biological target: T4, B2 bradykinin receptor (Homo sapiens) (UniProt P30411); assay: Displacement of [3H]bradykinin from human bradykinin B2 receptor expressed in baculovirus-infected SF21 cells
T4 sequence (whole entry): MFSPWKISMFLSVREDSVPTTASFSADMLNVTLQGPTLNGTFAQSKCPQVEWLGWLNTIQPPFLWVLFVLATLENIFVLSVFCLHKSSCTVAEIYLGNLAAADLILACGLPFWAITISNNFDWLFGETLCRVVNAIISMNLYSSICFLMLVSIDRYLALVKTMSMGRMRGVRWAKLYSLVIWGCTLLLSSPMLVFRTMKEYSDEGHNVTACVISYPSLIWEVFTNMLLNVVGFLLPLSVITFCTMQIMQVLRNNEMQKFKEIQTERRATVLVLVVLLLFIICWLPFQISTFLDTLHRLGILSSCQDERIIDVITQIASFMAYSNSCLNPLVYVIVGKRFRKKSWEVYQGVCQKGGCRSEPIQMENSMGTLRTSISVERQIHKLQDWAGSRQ

[8] = Binding affinity to neurotensin receptor
[9] = Binding affinity to galanin receptor
[10] = biological target: T5, Neuropeptide Y receptor type 1 (Rattus norvegicus, UniProt P21555); assay: as §1
T5 sequence (P21555 whole entry): T1 sequence (whole entry)

Structure (SMILES) | pIC50 [1] | Activity [2] | Activity [3] | Activity [1] | Activity [4] | Activity [5] | Activity [6] | Activity (Rattus norvegicus) | Activity [7] | Activity [8] | Activity [9] | inhibition [3] [%] | pIC50 [10] | inhibition [2] [%]
CC(C)=CCC/C(C)=C/CC/C(C)=C/CC/C(C)=C/CC/C(C)=C/CC/C(C)=C/CC/C(C)=C/Cc1cc(OS(=O)(=O)O)ccc1O | 4.94 | – | – | – | – | – | – | – | – | – | – | – | – | –
CC(C)=CCC/C(C)=C/CC/C(C)=C/CC/C(C)=C/CC/C(C)=C/CCC1(C)C=Cc2cc(O)ccc2O1 (configuration not stated) | – | inactive | inactive | inactive | inactive | inactive | inactive | inactive | inactive | inactive | inactive | – | – | –
CC(C)=CCC/C(C)=C/CC/C(C)=C/CC/C(C)=C/CC/C(C)=C/CC/C(C)=C/CCC1(C)C=Cc2cc(O)ccc2O1 (configuration not stated) | – | inactive | inactive | inactive | inactive | inactive | inactive | inactive | inactive | inactive | inactive | – | – | –
CC(C)=CCC/C(C)=C/CC/C(C)=C/CC/C(C)=C/CC/C(C)=C/Cc1cc(OS(=O)(=O)O)ccc1O | 4.84 | – | – | – | – | – | – | – | – | – | – | 65 | 4.04 | –
CC(C)=CCC/C(C)=C/CC/C(C)=C/CC/C(C)=C/CCC1(C)C=Cc2cc(O)ccc2O1 (configuration not stated) | – | inactive | inactive | inactive | inactive | inactive | inactive | inactive | inactive | inactive | inactive | – | – | –
CC(C)=CCC/C(C)=C/CC/C(C)=C/CC/C(C)=C/CC/C(C)=C/CC/C(C)=C/Cc1cc(OS(=O)(=O)O)ccc1O | 5.19 | – | – | – | – | – | – | – | – | – | – | – | – | –
CC(C)=CCC/C(C)=C/CC/C(C)=C/CC/C(C)=C/CC/C(C)=C/CC/C(C)=C/CC/C(=C/Cc1cc(O)ccc1O)CO | 5.01 | – | – | – | – | – | – | – | – | – | – | – | – | 45
